This test concerns nuclear p27 in LNCaP-S14 cells. The test is classed as cell-based, human.
Setting [1] is: primary screening, nuclear p27 in LNCaP-S14 cells.
The mark [2] stands for this setting: primary screening, S = strong, M = medium, W = weak by Z score.

Like-named read-outs stand apart in the source and are kept apart here.

Consider `Cl.O=C(OC(CCCN1CCOCC1)c1ccc(F)cc1)C(c1ccccc1)c1ccccc1` (centres unmarked) [519B04], for which, under setting [1], the “Z score (aver)” value came to 2.10. Besides, the Clasf result under setting [2] is recorded as “W (weak (Z score 2-3)”.

As for `CCN(CC)c1ccc(NCN2C(=O)c3ccccc3C2=O)c(C)c1` [541E03], the “Z score (aver)” value under setting [1] turned out to be 2.75. Besides, under setting [2], the Clasf entry is “W (weak (Z score 2-3)”.

As to `CCCCCc1cc(O)c2c(c1)OC(C)(C)c1ccc(C)cc1-2` [503C05], the “Z score (aver)” value under setting [1] stood at 5.93. The Clasf result under setting [2] is recorded as “S (strong (Z score > 5))”.

In the case of `CC(C)(C)c1cc2cc(NC(=O)c3cccs3)ccc2[nH]1` [520D16], under setting [1], the “Z score (aver)” value turned out to be 3.98. Moreover, the Clasf result under setting [2] is listed as “M (medium (Z score 3-5))”.

Regarding `CC1OC(OC2CCC3(C=O)C4CCC5(C)C(C6=CC(=O)OC6)CCC5(O)C4CCC3(O)C2)CC(O)C1O` (centres unmarked) [1570A13], the “Z score (aver)” value under setting [1] stood at 2.74. Under setting [2], the Clasf result was “W (weak (Z score 2-3)”.

Turning to `CC(=O)C1=C(C)NC(SCC(=O)c2ccc(Cl)cc2Cl)=C(C#N)C1c1sccc1C` (centres unmarked) [1159B21], under setting [1], the “Z score (aver)” value came to 2.34. Moreover, the Clasf entry under setting [2] is recorded as “W (weak (Z score 2-3)”.

Turning to `CCC(=C(c1ccccc1)c1ccc(OCCN(C)C)cc1)c1ccccc1.O=C(O)CC(O)(CC(=O)O)C(=O)O` [1568M14], the “Z score (aver)” value under setting [1] stood at 2.56. Moreover, the Clasf result under setting [2] is “W (weak (Z score 2-3)”.

As to `CCCCc1ccc(NC(C)=O)c(C)c1` [541G02], the Clasf entry is recorded as “S (key: S: strong (Z score > 5); M: medium (Z score 3-5); W: weak (Z score 2-3)” and the “Z score (aver)” value amounted to 7.67.

`O=C(c1ccc(Cl)nc1)N(Cc1ccc(-c2cccs2)s1)C1CC1` [541H08]: the “Z score (aver)” value under setting [1] came to 2.92. Moreover, under setting [2], the Clasf result was “W (weak (Z score 2-3)”.

As to `N#CC1=C(N)C(C#N)(C#N)C(c2ccc(Br)cc2)C2CN(Cc3ccccc3)CC=C12` (centres unmarked) [1160K18], under setting [1], the “Z score (aver)” value was 2.90. In addition, the Clasf entry under setting [2] is given as “W (weak (Z score 2-3)”.

As for `COc1ccccc1N1CCN(C(=O)CSc2nc3ccccc3c(=O)n2CCC(=O)NC2CCCCC2)CC1` [1158L12], the “Z score (aver)” value under setting [1] is given as 2.46. Besides, under setting [2], the Clasf result is reported as “W (weak (Z score 2-3)”.

`CS(=O)(=O)c1ccc(C=CC(=O)Nc2cccc(C(F)(F)F)c2)cc1` [518N13]: the “Z score (aver)” value under setting [1] turned out to be 5.55. Further, the Clasf entry under setting [2] is listed as “S (strong (Z score > 5))”.

Regarding `Cl.OC(c1cc(C(F)(F)F)nc2c(C(F)(F)F)cccc12)C1CCCCN1` (centres unmarked) [1568I14], the “Z score (aver)” value under setting [1] is listed as 8.87. Further, the Clasf entry under setting [2] is “S (strong (Z score > 5))”.

As to `C=CCN1C(=O)CC(C(=O)Nc2ccc(OC)cc2)SC1=Nc1ccc(Cl)cc1` (centres unmarked) [1158M12], the “Z score (aver)” value under setting [1] amounted to 2.69. Also, the Clasf entry under setting [2] is listed as “W (weak (Z score 2-3)”.

As to `COc1ccc(SC(=O)c2cc(C)n(Cc3c(Cl)cccc3Cl)n2)cc1` [1520J06], the “Z score (aver)” value under setting [1] stood at 3.39. Besides, the Clasf entry under setting [2] is on record as “M (medium (Z score 3-5))”.

As for `COC1=CC(C)=CC(C)C(O)C(C)CC(C)=CC=CC(OC)C(C(C)C(O)C(C)C2CC(O)C(C)C(C(C)C)O2)OC1=O` (centres unmarked) [1361J12], the “Z score (aver)” value under setting [1] came to 4.65. Also, the Clasf result under setting [2] was “M (medium (Z score 3-5))”.

As for `CCOC(=O)C1=C(C)N=c2sc(=Cc3ccc(N(CC)CC)o3)c(=O)n2C1c1ccccc1OC` (centres unmarked) [1158M07], the “Z score (aver)” value under setting [1] is 11.51. For the same compound, the Clasf result under setting [2] is recorded as “S (strong (Z score > 5))”.

Take `CC(C)(C)c1cc2cc(NC3CCN(C(=O)c4ccccc4Cl)CC3)ccc2[nH]1` [520N14]: under setting [1], the “Z score (aver)” value is given as 2.16. In addition, the Clasf result under setting [2] was “W (weak (Z score 2-3)”.

On to `CC(=O)N1CCC(N(C(=O)C2CC2)c2ccc3c(c2)CCN3C(C)=O)CC1` [520E02], for which the “Z score (aver)” value under setting [1] amounted to 2.46. The Clasf entry under setting [2] is listed as “W (weak (Z score 2-3)”.

Consider `N#Cc1c(N)nc(SCC(=O)NCc2ccccc2)c(C#N)c1-c1cccs1` [1159G21], for which the “Z score (aver)” value under setting [1] is 3.48. Moreover, the Clasf result under setting [2] was “M (medium (Z score 3-5))”.

In the case of `COc1cc(C(=O)N2c3ccc(C)cc3-c3c(ssc3=S)C2(C)C)cc(OC)c1OC` [1160F11], under setting [1], the “Z score (aver)” value worked out at 3.09. The Clasf result under setting [2] was “M (medium (Z score 3-5))”.

Regarding `Cc1cc(C)nc(N2CCN(C(=O)C(c3ccccc3)c3ccccc3)CC2)n1` [521H09], under setting [1], the “Z score (aver)” value is listed as 2.35. The Clasf result under setting [2] is on record as “W (weak (Z score 2-3)”.

For `Cc1ccc(C)n1-c1ccccc1CNS(=O)(=O)c1ccc(Cl)cc1` [669P04], the “Z score (aver)” value under setting [1] is listed as 5.53. Further, the Clasf entry under setting [2] is reported as “S (strong (Z score > 5))”.

Regarding `COc1ccccc1C1Oc2ccc(Cl)cc2C2CC(c3ccc(Cl)cc3)=NN21` (centres unmarked) [1158M11], under setting [1], the “Z score (aver)” value was found to be 4.34. Also, the Clasf result under setting [2] was “M (medium (Z score 3-5))”.

For `Cc1ccc(C(=O)C2C(c3ccccc3I)C(C#N)(C#N)C3c4ccccc4C=CN23)cc1` (centres unmarked) [669K08], the “Z score (aver)” value under setting [1] stood at 2.72. Besides, the Clasf result under setting [2] is “W (weak (Z score 2-3)”.

With `CN(C)c1ccc(C=CC=CC23NC(=O)CN2c2ccccc2C3(C)C)cc1` (centres unmarked) [1160J08], the “Z score (aver)” value under setting [1] came out at 4.94. For the same compound, the Clasf entry under setting [2] was “M (medium (Z score 3-5))”.

Turning to `Clc1ccc(COC(Cn2ccnc2)c2ccc(Cl)cc2Cl)cc1.O=[N+]([O-])O` (centres unmarked) [1568N10], the “Z score (aver)” value under setting [1] worked out at 2.46. Under setting [2], the Clasf result was “W (weak (Z score 2-3)”.

`COC1CC(CC2CCC(C)C(C(C)C(=O)[O-])O2)OC2(OC(C)(C3CCC(C)(C4OC(C5OC(O)(CO)C(C)CC5C)CC4C)O3)CC2C)C1C.[Na+]` (centres unmarked) [501K17]: the “Z score (aver)” value under setting [1] is on record as 5.95. Further, the Clasf result under setting [2] was “S (strong (Z score > 5))”.

Regarding `CC=C(C)C(=O)OC1C(C)=C2C(C1OC(=O)CCCCCCC)C(C)(OC(C)=O)CC(OC(=O)CCC)C1(O)C2OC(=O)C1(C)O` (centres unmarked) [1361L03], the “Z score (aver)” value under setting [1] was 8.27. Under setting [2], the Clasf entry is “S (strong (Z score > 5))”.

Regarding `CCCCCCc1ccc(O)cc1O` [500E16], the “Z score (aver)” value under setting [1] is recorded as 3.71. In addition, the Clasf result under setting [2] is “M (medium (Z score 3-5))”.

Turning to `CCOC(=O)c1cc2cccc(NS(=O)(=O)c3cccc(C(F)(F)F)c3)c2[nH]1` [520F11], under setting [1], the “Z score (aver)” value came to 7.25. The Clasf entry under setting [2] is recorded as “S (strong (Z score > 5))”.

Turning to `COc1ccc(S(=O)(=O)Nc2ccc3[nH]c(C(C)(C)C)cc3c2)cc1` [521I17], the “Z score (aver)” value under setting [1] turned out to be 3.94. For the same compound, the Clasf result under setting [2] is “M (medium (Z score 3-5))”.

As to `CN(C)CCCN1c2ccccc2CCc2ccc(Cl)cc21.Cl` [1568F20], the “Z score (aver)” value under setting [1] stood at 2.49. Under setting [2], the Clasf result is given as “W (weak (Z score 2-3)”.

Regarding `N=C(NCCCCCCNC(=N)NC(=N)Nc1ccc(Cl)cc1)NC(=N)Nc1ccc(Cl)cc1` [1568M08], under setting [1], the “Z score (aver)” value came out at 6.26. The Clasf entry under setting [2] is recorded as “S (strong (Z score > 5))”.

`Cc1cc(N)c2ccccc2[n+]1CCCCCCCCCC[n+]1c(C)cc(N)c2ccccc21.Cl` [1569M17]: the “Z score (aver)” value under setting [1] is recorded as 9.20. The Clasf entry under setting [2] is on record as “S (strong (Z score > 5))”.

Regarding `COc1ccc2c(c1)OC1(C=C2)N(C)c2ccccc2C1(C)C` (centres unmarked) [1159E12], the “Z score (aver)” value under setting [1] was 12.29. Further, the Clasf result under setting [2] is reported as “S (strong (Z score > 5))”.

With `COc1ccc(-c2nc3c4ccccc4c4ccccc4c3[nH]2)c(OC)c1` [1160C13], the “Z score (aver)” value under setting [1] is 2.90. Also, under setting [2], the Clasf entry was “W (weak (Z score 2-3)”.

The values are drawn from PMC3025922 (BMC Biology, 2010).
